Assay results published in patent US12319699B2, “L-proline sulfonamide derivatives comprising pyrazolo[4,3-e]tetrazolo[4,5-b][1,2,4]triazine system, method of manufacturing thereof, uses thereof and pharmaceutical composition comprising the same” (UNIWERSYTET MEDYCZNY W BIALYMSTOKU, priority 2018, dated 2025).

How the values were obtained:
Assay type in all cases: cell-based, human
Details in all cases: 24 hours
[1] = test system: HT-29 colorectal cancer cells; test: Decrease in mitochondrial membrane potential, JC-1 MitoScreen flow cytometry
Method: (§1) HT-29 human colorectal cancer cells (ATCC HTB-38, Manassas, VA, USA) were cultured in McCoy's 5A medium supplemented with 10% fetal bovine serum (FBS), 2 mM glutamine, 50 U/ml penicillin, 50 μg/ml of streptomycin at 37° C., in atmosphere containing 5% CO2. Subsequently, the cells were counted in a hemocytometer and were transferred in the amount of 1×10^6 cells per well in 1 ml of culture medium from Costar flasks (Sigma, USA) to Nunc 6-well plates (Wiesbaden, Germany). The cells were transferred using calcium-free phosphate buffer with the addition of 0.05% trypsin and 0.02% EDTA. […] Within the subsequent 24 hours the cells covered at least 80% of the surface of each plate well. The cells prepared in this manner were incubated with the examined compounds for 24 hours and then used for further experiments.
For the assessment of changes in mitochondrial potential JC-1 MitoScreen kit (BD Biosciences. USA) was used. DLD-1 and HT-29 cancer cells covering about 80% of the plate surface were incubated with the examined compounds according to the invention at specific concentrations in an incubator at 37° C. in 5% CO2 atmosphere for 24 hours. Both examined compounds according to the invention were used at a concentration of 1.5 μM and 3.0 μM. After the incubation period, the medium was removed, the buffer included in the kit was added and the cells after washing two times were suspended in a mixture of JC-1 dye (5,5′,6,6′-tetrachloro-1,1′,3,3′-tetraethylbenzimidazol carbocyanine iodide) with a buffer at a concentration of 10 μg/ml. Subsequently, the samples were incubated in darkness for 15 minutes, washed with PBS solution and subjected to immediate analysis with the use of BD FacsCanto II flow cytometer; the results were assessed with the use of BD FacsDiva software. In live intact cells JC-1 dye accumulates in mitochondria and forms orange fluorescing aggregates. A decrease in mitochondrial potential ΔΨm is characterized by disintegration of these aggregates and green fluorescence.

[2] = test system: HT-29 colorectal cancer cells; test: Induction of apoptosis, Annexin V-FITC / propidium iodide flow cytometry
Method: as §1
(§2) Induction of apoptosis was examined by a method using fluorescein isothiocyanate-labelled Annexin V (Annexin V-FITC) which forms complexes with phosphatidylserine in the presence of calcium ions. The complexes were determined using FITC Annexin V Apoptosis Detection Kit II (BD Biosciences, USA) and a flow cytometer BD FACSCanto H (BD Biosciences Systems, San Jose, CA, USA). The analysis of results was carried out by means of FACSDiva software (BD Biosciences Systems, San Jose, CA USA).
(§3) DLD-1 and HT-29 cells were incubated for 24 hours in an incubator at 37° C. in a 5% CO2 atmosphere with medium containing the examined compounds according to the invention at specific concentrations. Both examined compounds were used at a concentration of 1.5 μM and 3.0 μM. After the incubation period, the medium was removed, a binding buffer included in the kit was added and the cells were suspended in the buffer. In order to calibrate the apparatus two control samples, i.e. a positive one and a negative one, were prepared. The positive control constituted a reference of control cells in which apoptosis was induced by the addition of 3% formaldehyde. Three control samples were prepared. The first sample contained control cells and propidium iodide, the second sample contained control cells and Annexin V-FITC and the third sample contained control cells, propidium iodide and Annexin V-FITC. After adding 2 μl of 3% formaldehyde the cells were placed in a refrigerator for 10 minutes. Cells that were not treated with any agent constituted the negative control. The cells from the control samples and the cells treated by the examined compounds according to the invention (1×10^6 cells/ml) suspended in the buffer included in the kit were subjected to further examination. 200 μl suspension were taken from each examined sample and were transferred to test tubes. 3 μl Annexin V-FITC and 5 μl propidium iodide (PI) were added to each sample in room temperature and the samples were placed in a dark place for 15 minutes. Cell suspension prepared in this manner was analyzed within one hour in the flow cytometer BD FACSCanto II (BD Biosciences Systems, San Jose, CA, USA) by means of FACSDiva software. The results of the above experiment can be described as follows: live cells (double negative sample—lack of reaction with Annexin V and P), early apoptosis (Annexin V positive and PI negative sample), late apoptosis (Annexin V positive and PI positive sample) and necrosis (Annexin V negative and PI positive sample)

[3] = test system: DLD-1 colorectal cancer cells; test: as above
Method: DLD-1 human colorectal cancer cells (ATCC CCL-221, Manassas, VA, USA) were grown in DMEM (Dulbecco's Modified Eagle's Medium) supplemented with 10% fetal bovine serum (FBS), 2 mM glutamine, 50 U/ml penicillin, 50 μg/ml streptomycin at 37° C., in atmosphere containing 5% of CO2. Then the cells were counted in a hemocytometer and transferred in the amount of 1×10^6 cells per well in 1 ml of culture medium from Costar flasks (Sigma, USA) to Nunc 6-well plates (Wiesbaden, Germany). The cells were transferred using calcium-free phosphate buffer with the addition of 0.05% trypsin and 0.02% EDTA. […] Within the subsequent 24 hours the cells covered at least 80% of the surface of each plate well. The cells prepared in this manner were incubated with the examined compounds for 24 hours and then used for further experiments.
as §2, §3

[4] = DLD-1, 3.0 μM, listed as compound of Formula 3
[5] = HT-29, 1.5 μM, listed as compound of Formula 2

Row | SMILES | decrease of ΔΨm, % of the cell population ([1]; HT-29, 1.5 μM) [%] | decrease of ΔΨm, % of the cell population ([1]; HT-29, 3.0 μM) [%] | Early apoptosis ([2]; HT-29, 1.5 μM) [%] | Late apoptosis ([2]; HT-29, 1.5 μM) [%] | Live cells ([2]; HT-29, 1.5 μM) [%] | Necrosis ([2]; HT-29, 1.5 μM) [%] | Early apoptosis ([2]; HT-29, 3.0 μM) [%] | Late apoptosis ([2]; HT-29, 3.0 μM) [%] | Necrosis ([2]; HT-29, 3.0 μM) [%] | Early apoptosis ([3]; DLD-1, 1.5 μM) [%] | Late apoptosis ([3]; DLD-1, 1.5 μM) [%] | Live cells ([3]; DLD-1, 1.5 μM) [%] | Necrosis ([3]; DLD-1, 1.5 μM) [%] | early and late apoptotic cells (total) ([3]; DLD-1, 1.5 μM) [%] | Early apoptosis ([3]; DLD-1, 3.0 μM) [%] | Late apoptosis ([3]; DLD-1, 3.0 μM) [%] | Live cells ([3]; DLD-1, 3.0 μM) [%] | Necrosis ([3]; DLD-1, 3.0 μM) [%] | further results
1 | COC(=O)C1CC(O)CN1S(=O)(=O)c1ccc(-n2nc(C)c3nc4nnnn4nc32)cc1 (stereo not drawn) [Compound of Formula 3, Methyl 4-hydroxy-1-[4-(7-methyl-5H-pyrazolo[4,3-e]tetrazolo[4,5-b][1,2,4]triazyn-5-yl)phenylsulfonyl]pyrrolidine-2-carboxylate] | 26.9 | 81.0 | 14.5 | 16.0 | 65.0 | 4.5 | 25.2 | 13.7 | 2.6 | 17.0 | 32.1 | 43.9 | 7.0 | 49.1 | 1.7 | 80.8 | 11.0 | 6.5 | early and late apoptotic cells (total) ([2]; HT-29, 1.5 μM): 30.5%; Necrosis ([2]; HT-29, 1.5 μM, listed as compound of Formula 3): 4.5%; Necrosis ([3]; DLD-1, 1.5 μM, listed as compound of Formula 3): 7.0%; Early apoptosis [3, 4]: 1.7%; Late apoptosis [3, 4]: 80.8%; Necrosis [3, 4]: 6.5%
2 | COC(=O)C1CCCN1S(=O)(=O)c1ccc(-n2nc(C)c3nc4nnnn4nc32)cc1 (stereo not drawn) [Compound of Formula 2, Methyl 1-[4-(7-methyl-5H-pyrazol[4,3-e]tetrazolo[4,5-b][1,2,4]triazyn-5-yl)phenylsulfonyl]pyrrolidine-2-carboxylate] | 25.7 | 79.7 | 9.0 | 4.7 | 85.3 | 1.0 | 9.6 | 9.4 | 2.7 | 13.1 | 9.6 | 74.8 | 2.5 | 22.7 | 16.4 | 30.0 | 47.1 | 6.6 | Early apoptosis [2, 5]: 9.0%; Late apoptosis [2, 5]: 4.7%; Necrosis [2, 5]: 1.0%; Live cells ([2]; HT-29, 3.0 μM): 78.3%; apoptotic cells (total) ([2]; HT-29, 3.0 μM): 19.0%; Necrosis ([2]; HT-29, 3.0 μM, listed as compound of Formula 2): 2.7%; Necrosis ([3]; DLD-1, 1.5 μM, listed as compound of Formula 2): 2.5%; early and late apoptotic cells (total) ([3]; DLD-1, 3.0 μM): 46.4%; Necrosis ([3]; DLD-1, 3.0 μM, listed as compound of Formula 2): 6.6%
